Consider twelve compounds from article PMC7281506, “Bengamide Analogues Show A Potent Antitumor Activity against Colon Cancer Cells: A Preliminary Study” (Marine Drugs, 2020).

Like-named read-outs stand apart in the source and are kept apart here.

Data set [1] deals with T84 colon cancer cell line. The data set is described as follows: Proliferation assay (Sulforhodamine B), T84. It counts as cell-based. Conditions: Homo sapiens; T84, 72 h treatment, mean ± SD of triplicate samples. How it is done: (§1) The T84, SW480, HCT15, HT29 and MC38 colon cancer cell lines were selected to assay the bengamide effect. A normal colon fibroblast cell line (CCD18) was included in the analysis. In addition, a cell line of another tumor type (breast cancer) was studied (MCF7). All cell lines were grown in Dulbecco’s modified Eagle’s medium (DMEM) supplemented with fetal bovine serum (10%) and a mix of penicillin-streptomycin (1%) (Sigma-Aldrich, Madrid, Spain). Cell lines were maintained at 37 °C and 5% CO2 in a humidified incubator.
(§2) The different cell lines were seeded in 48-well plates at a cell density of 3 × 10^3 cells/well for MC38, 5 × 10^3 cells/well for T84, SW480, HCT15 and CCD18, 15 × 10^3 cells/well for HT29 and 4 × 10^3 cells/well for MCF7. After attaching to the well, the treatments, Ben I and Ben V (analogues 5 and 10, respectively), were added in a wide range of doses determined by the cell line from an initial stock of 0.3 mg/mL for Ben I and 6.9 mg/mL for Ben V, both dissolved in water. The treatments were maintained for 72 h. Elapsed this time, the cells were fixed with trichloroacetic acid at 10%, stained with Sulforhodamine B (Sigma-Aldrich, Madrid, Spain) and the dye was lifted with Trizma® (Sigma-Aldrich, Madrid, Spain) at 10% following a previously established protocol. Doxorubicin and 5-Fluorouracil were used as reference compounds in breast and colon cell lines, respectively.

Data set [2] relates to SW480 colon cancer cell line. The data set is described as follows: Proliferation assay (Sulforhodamine B), SW480. It counts as cell-based. Conditions: Homo sapiens; SW480, 72 h treatment, mean ± SD of triplicate samples. How it is done: as §1, §2
In data set [3] the test system is HT29 colon cancer cell line. Kind of data set: Proliferation assay (Sulforhodamine B), HT29. It counts as cell-based. Conditions: Homo sapiens, HT-29; HT29, 72 h treatment, mean ± SD of triplicate samples. How it is done: as §1, §2
In data set [4] the test system is MC38 mouse colon cancer cell line. Kind of data set: Proliferation assay (Sulforhodamine B), MC38. The class given is cell-based. Conditions: MC-38, MC38, 72 h treatment, mean ± SD of triplicate samples. How it is done: as §1, §2
The test system of data set [5] is HCT15 resistant colon cancer cell line. The data set is described as follows: Proliferation assay (Sulforhodamine B), HCT15. It counts as cell-based. As to conditions: Homo sapiens, HCT-15; HCT15, 72 h treatment, mean ± SD of triplicate samples. How it is done: as §1, §2
The test system of data set [6] is CCD18 normal colon fibroblast cell line. Kind of data set: Proliferation assay (Sulforhodamine B), CCD18. The class given is cell-based. Conditions: Homo sapiens, CCD18, 72 h treatment, mean ± SD of triplicate samples. The procedure: as §1, §2
Data set [7] relates to MDA-MB-435 human breast cancer cells. As to conditions: cited from earlier work.
Data set [8] in a line: Toxicity test in white blood cells (CCK-8). The class given is cell-based. Conditions: human; WBC, 1 and 12 h of exposure, all doses tested (0.01–40 µM). How it is done:
To evaluate the effect of Ben I and Ben V compounds on blood cells, a hemolysis test using human erythrocytes and a toxicity test using WBC were carried out. Different blood cells (erythrocytes and WBC) were isolated from blood samples taken from healthy donors and exposed to a wide range of doses of both Ben I and Ben V compounds (0.01–40 µM) following our previously described protocol. Briefly, the erythrocytes were diluted 50 times their initial concentration in PBS, seeded in conical bottom 96-well plates and treated with the different treatments for 1 h at 37 °C under stirring. Following this, the plate was centrifuged, 100 µL of the supernatant was transferred to a new 96-well flat-bottom plate and the absorbance at 492 nm was determined. […] In the case of erythrocytes, the percentage of hemolysis (%HR) was calculated with the following formula: %HR=Abs(sample)−Abs(−control)/Abs(+control)−Abs(−control)×100.
As for the WBCs, they were seeded in flat-bottom 96-well plates in RPMI-1640 medium supplemented with FBS (10%) and a mixture of antibiotic (1%) at a density of 2 × 10^4 cells/well. […] The CCK-8 reagent was added to each well and after 3 h of incubation the absorbance was measured at 450 and 620 nm to determine the viability according to the manufacturer.

In a further data set the test system is CCD18 normal colon cells. Kind of data set: Cell cycle assay (PI, flow cytometry), CCD18. It counts as cell-based, human. Conditions: CCD18, 48 h; for SubG1 and S phase change vs control: doses of IC50. The procedure: (§3) To assess the effect of treatments in the cell cycle, a cancer cell line (T84) and a normal cell line (CCD18) were seeded in 6-well plates at a density of 1.5 × 10^5 and 1 × 10^5 cells/well, respectively. […] In addition, untreated cells were used as a negative control and cells treated with 5-FU at its IC50 at 48 h as a positive control. After this time, the culture medium of each treatment was collected in a clean cytometry tube, the wells were washed with PBS at 4 °C and this wash was added to the previous tube. The cells were detached with a trypsin-EDTA mixture and also added to the tube. Next, the tubes were centrifuged at 3500 rpm for 3 min, the supernatant was discarded, and the pellet was resuspended in 100 µL of PBS. After this, 900 µL of 70% cold EtOH was added to each tube while the tubes were vortexed, then the tubes were placed on ice and incubated at 4 °C for 10 min. After this time, two washes were carried out with PBS to remove ethanol and the pellets were resuspended in 250 µL of PBS, to which 250 µL of DNA extraction solution was added (192 mL of 0.2 M Na2HPO4 + 8 mL of 0.1 M citric acid, pH = 7.8). The samples were incubated at 37 °C for 10 min, centrifuged and the supernatant discarded. Finally, 250 µL of propidium iodide (PI)/RNAse (ImmunoStep, Salamanca, Spain) solution was added and the samples were incubated for 10 min at 37 °C in the dark. Thereafter, the samples were analyzed by FAC Scan on a Becton Dickinson analyzer cytometer (Becton Dickinson, Franklin Lakes, NJ, USA).

For a further data set, the system named is human erythrocytes. Kind of data set: Hemolysis test using human erythrocytes. It counts as cell-based. As to conditions: light microscopy after treatment. The procedure: (§4) To evaluate the effect of Ben I and Ben V compounds on blood cells, a hemolysis test using human erythrocytes and a toxicity test using WBC were carried out. Different blood cells (erythrocytes and WBC) were isolated from blood samples taken from healthy donors and exposed to a wide range of doses of both Ben I and Ben V compounds (0.01–40 µM) following our previously described protocol. Briefly, the erythrocytes were diluted 50 times their initial concentration in PBS, seeded in conical bottom 96-well plates and treated with the different treatments for 1 h at 37 °C under stirring. Following this, the plate was centrifuged, 100 µL of the supernatant was transferred to a new 96-well flat-bottom plate and the absorbance at 492 nm was determined. Erythrocytes treated with Triton X-100 to 20% were used as a positive control and as a negative control, erythrocytes treated with PBS were used. In the case of erythrocytes, the percentage of hemolysis (%HR) was calculated with the following formula: %HR=Abs(sample)−Abs(−control)/Abs(+control)−Abs(−control)×100.

Data set [9] can be described thus: Hemolysis test using human erythrocytes. As to conditions: human erythrocytes isolated from blood of healthy donors, 1 h at 37 °C, highest doses (range 0.01–40 µM), read-out: level of hemolysis. The class given is cell-based. The procedure:
as §4

For data set [10], the system named is MCF7 breast cancer cell line. Kind of data set: Proliferation assay (Sulforhodamine B), MCF7. It counts as cell-based. Conditions: Homo sapiens; MCF7, 72 h treatment, mean ± SD of triplicate samples. How it is done: as §1, §2
The test system of another data set is T84 cells. The data set is described as follows: Cell cycle assay (PI, flow cytometry), T84. It counts as cell-based, human. Conditions: T84, 48 h; for G2/M phase change vs control: IC25 and IC50. The procedure: as §3
For orientation: In flow cytometry, cells or beads pass a laser one at a time.

The next data set has as its system cancer cell line A549. More on the design: method as in PMID 26514647. As to conditions: A549, Figure 1; read-out: IC50 (cytotoxicity); cited from earlier work.
For data set [11] the following is noted: clinical candidate; cited from earlier work.
Setting [12] is: read-out: IC50 (cytotoxicity), MDA-MB-435, Figure 1.

What is called IC50 is the concentration needed to halve the response being measured. Broadly, the viability is a read-out of living cells in per cent, often relative to untreated cells. High values mean better survival, low ones a greater loss of cells.

As to `O=c1[nH]cc(F)c(=O)[nH]1` [5-fluorouracil, reference compound], the IC50 was determined as 2680 ± 160 nM in data set [1]; 6350 ± 540 nM in data set [2]; 6140 ± 940 nM in data set [3]; 330 ± 10 nM in [4]; 6580 ± 350 nM in data set [5]; 7350 ± 410 nM in [6].
`CO[C@@H](C(=O)N[C@H]1CCCCN(CCOC(=O)C2CCCCC2)C1=O)[C@H](O)[C@@H](O)[C@H](O)/C=C/C(C)(C)C` [Ben III]: in data set [7] (setting [12]), the IC50 is 17 nM.
As for `CO[C@@H](C(=O)N[C@H]1CCCCNC1=O)[C@H](O)[C@@H](O)[C@H](O)/C=C/C(C)C` [Bengamide E], the concentration for half-maximal inhibition (IC50) in [7] (setting [12]) is 3300 nM.
With `CO[C@@H](C(=O)N[C@H]1CCCCNC1=O)[C@H](O)[C@@H](O)[C@H](O)/C=C/C(C)(C)C` [Ben I], in data set [8], the viability was ~100%. The IC50 is 360 ± 30 nM in data set [1]; 630 nM in data set [7] (setting [12]); 490 ± 50 nM in data set [10]; 590 ± 70 nM in data set [2]; 1020 ± 190 nM in data set [3]; 1600 ± 130 nM in data set [4]. Besides, the IC50 is 1900 ± 150 nM in [5] and 4700 ± 280 nM in [6]. The “G2/M phase change vs control” value in the data set on CCD18 normal colon cells was “slight increase”; with T84 cells, “statistically significant (p < 0.05) G2/M phase increase”. Besides, the “SubG1 and S phase change vs control” value with CCD18 normal colon cells was “marked increase”. Besides, the “erythrocytes agglutination or modification of morphology” value with human erythrocytes is listed as “none of these compounds caused erythrocytes agglutination or modification of their morphology”. For the same compound, in [9], the hemolysis at 1 h was ~2%. Also, the “SubG1 phase change vs control” value in the data set with T84 cells is on record as “No differences were observed with the control”.
Consider `CCCCCCCCCCCCCC(=O)O[C@H]1CC[C@H](NC(=O)[C@H](OC)[C@H](O)[C@@H](O)[C@H](O)/C=C/C(C)C)C(=O)N(C)C1` [Bengamide B], for which, in data set [7] (setting [12]), the IC50 was 2.4 nM.
As to `CO[C@@H](C(=O)N[C@H]1CCCCNC1=O)[C@H](O)[C@@H](O)[C@H](O)/C=C/C1CCCC1` [Ben II], in data set [7] (setting [12]), the IC50 is 440 nM.
For `CCCCCCCCCCCCCC(=O)O[C@H]1CC[C@H](NC(=O)[C@H](OC)[C@H](O)[C@@H](O)[C@H](O)/C=C/C(C)C)C(=O)NC1` [Bengamide A, bengamide A], the IC50 in data set [7] (setting [12]) was 1 nM.
As for `CO[C@@H](C(=O)N[C@H]1CCc2ccccc2NC1=O)[C@H](O)[C@@H](O)[C@H](O)/C=C/C(C)(C)C` [Ben IV], the half-inhibitory concentration (IC50) in the data set with cancer cell line A549 was 9 nM.
Take `CO[C@@H](C(=O)N[C@H]1CC[C@@H](OC(=O)C2CCCCC2)CNC1=O)[C@H](O)[C@@H](O)[C@H](O)/C=C/C(C)(C)C` [LAF389]: the pharmacokinetic properties result in [11] was “poor pharmacokinetic properties”. Besides, the IC50 in data set [7] (setting [12]) is 40 nM.
Turning to Bengamide F, the IC50 in data set [7] (setting [12]) was 2900 nM.
Take `CO[C@@H](C(=O)N[C@@H](C)C(=O)NCCCOC(=O)C1CCCCC1)[C@H](O)[C@@H](O)[C@H](O)/C=C/C(C)(C)C` [Ben V]: in data set [8], the viability was ~100%. Moreover, the 50% inhibitory concentration (IC50) is 70 ± 20 nM in [1]; 4 nM in [7] (MDA-MB-435 human breast cancer cells); 130 ± 10 nM in data set [10]; 80 nM in data set [2]; 660 ± 180 nM in data set [3]; 6510 ± 1120 nM in data set [4]. Further, the IC50 was found to be 2440 ± 250 nM in data set [5] and 5080 ± 390 nM in [6]. Further, the “G2/M phase change vs control” value with CCD18 normal colon cells is on record as “slight increase”; with T84 cells, “this increase was much greater”. For the same compound, in the data set on CCD18 normal colon cells, the “SubG1 and S phase change vs control” value is given as “marked increase”. Besides, in the data set with human erythrocytes, the “erythrocytes agglutination or modification of morphology” value is on record as “none of these compounds caused erythrocytes agglutination or modification of their morphology”. The hemolysis at 1 h in data set [9] was ~2%. For the same compound, in the data set with T84 cells, the “G0/G1 and S phases change vs control” value is “slight reduction”. Also, the “SubG1 phase change vs control” value in the data set on T84 cells is listed as “No differences were observed with the control”.
On to `COc1cccc2c1C(=O)c1c(O)c3c(c(O)c1C2=O)C[C@@](O)(C(=O)CO)C[C@@H]3O[C@H]1C[C@H](N)[C@H](O)[C@H](C)O1` [doxorubicin, reference compound], for which the IC50 in [10] turned out to be 40 ± 10 nM.
